The structures appear in SMILES notation.

For 65 compounds, maximum recommended daily dose (mmol/kg-bw/day) results are on record in PubChem BioAssay AID1195 (EPA DSSTox, 2008).

This data set deals with human maximum recommended daily dose, FDA database. Put plainly: DSSTox (FDAMDD) FDA Maximum (Recommended) Daily Dose Database. The note with it: active compounds read low. In outline: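 MRDD values come from clinical trials with daily oral dosing, usually for 3–12 months, for the average adult, in mg/day converted to mg/kg-bw/day assuming 60 kg. Antineoplastic mg/m2 doses are divided by 37. Activity score maps log10(1/MRDD mmol) onto 1–100.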

[1] abbreviates: TherapeuticCategory: glucocorticoid.
Setting [2] is: TherapeuticCategory: sedative, hypnotic.
Where [3] appears, read: TherapeuticCategory: anticholinergic.
[4] abbreviates: TherapeuticCategory: antidepressant.
The mark [5] stands for this setting: TherapeuticCategory: antibacterial.
[6] abbreviates: TherapeuticCategory: antidiabetic.
[7] abbreviates: TherapeuticCategory: antihistaminic.
[8] abbreviates: TherapeuticCategory: antihypertensive.

As for `COC(=O)C1=CCCN(C)C1`, for the setting “TherapeuticCategory: anthelmintic”, the maximum recommended daily dose (mmol/kg-bw/day) was 0.000215.

As to `C[C@]12C=CC(=O)C=C1CC[C@@H]1[C@@H]2[C@@H](O)C[C@@]2(C)[C@H]1CC[C@]2(O)C(=O)CO`, under setting [1], the maximum recommended daily dose (mmol/kg-bw/day) is 0.00924.

In the case of `Nc1ccn([C@H]2CC[C@@H](CO)O2)c(=O)n1`, the maximum recommended daily dose (mmol/kg-bw/day) (TherapeuticCategory: antiviral) was 0.000178.

For the compound `N=C(N)N`, where the note is “TherapeuticCategory: none”, the maximum recommended daily dose (mmol/kg-bw/day) is 0.846.

With `CC/C=C(\C)C1(CC)C(=O)NC(=O)NC1=O`, the maximum recommended daily dose (mmol/kg-bw/day) under setting [2] was 0.0148.

For the compound `CC[N+](CC)(CC)CCC(O)(c1ccccc1)C1CCCCC1` (stereo not given), the maximum recommended daily dose (mmol/kg-bw/day) under setting [3] is 0.00941.

With `CN1CCN2c3ncccc3Cc3ccccc3C2C1` (stereo not given), the maximum recommended daily dose (mmol/kg-bw/day) under setting [4] was 0.00283.

With `NS(=O)(=O)c1cc2c(cc1Cl)NC(CSCc1ccccc1)=NS2(=O)=O`, the maximum recommended daily dose (mmol/kg-bw/day) (TherapeuticCategory: diuretic, antihypertensive) was 0.00771.

On to `CC1(C)S[C@@H]2[C@H](NC(=O)[C@H](NC(=O)N3CCN(S(C)(=O)=O)C3=O)c3ccccc3)C(=O)N2[C@H]1C(=O)O`, for which, under setting [5], the maximum recommended daily dose (mmol/kg-bw/day) was 0.495.

Consider `CCCCNC(=O)NS(=O)(=O)c1ccc(N)cc1`, for which the maximum recommended daily dose (mmol/kg-bw/day) under setting [6] is 0.0615.

`CCOC(=O)c1c(C)cc2c(CO)n[nH]c(=O)c2c1C`: for the setting “TherapeuticCategory: phosphodiesterase inhibitor”, the maximum recommended daily dose (mmol/kg-bw/day) is 0.724.

Regarding `CC1(C)C(\C=C/C=C\C=C/C=C2/N(CCCCS(=O)(=O)O)c3ccc4ccccc4c3C2(C)C)=[N+](CCCCS(=O)(=O)[O-])c2ccc3ccccc3c21`, the maximum recommended daily dose (mmol/kg-bw/day) (TherapeuticCategory: diagnostic aid) was 0.000645.

For the compound `COc1ccc(C(=O)Nc2ccccc2CCC2CCCCN2C)cc1` (stereo not given), the maximum recommended daily dose (mmol/kg-bw/day) (TherapeuticCategory: antiarrhythmic) is 0.00945.

On to `N[C@@H]1[C@@H](O)[C@@H](O[C@@H]2[C@@H](O)[C@H](O[C@H]3O[C@H](CO)[C@@H](O)[C@H](O)[C@H]3N)[C@@H](N)C[C@H]2N)O[C@H](CO)[C@H]1O`, for which, under setting [5], the maximum recommended daily dose (mmol/kg-bw/day) is 0.031.

`C[C@]12COC(=O)C[C@@H]1CC[C@@H]1[C@@H]2CC[C@@]2(C)[C@H]1CC[C@]2(C)O`: the maximum recommended daily dose (mmol/kg-bw/day) (TherapeuticCategory: androgen) was 0.00109.

`CCn1nc(C)c2c1C(c1ccccc1)=NCC(=O)N2`: where the note is “TherapeuticCategory: antianxiolytic”, the maximum recommended daily dose (mmol/kg-bw/day) was 0.00496.

On to `C#C[C@]1(O)CC[C@H]2[C@@H]3CCC4=CCCC[C@@H]4[C@H]3C(=C)C[C@@]21CC`, for which the maximum recommended daily dose (mmol/kg-bw/day) (TherapeuticCategory: progestogen) was 8.05e-06.

Take `CN1C(=O)OC(C)(C)C1=O`: for the setting “TherapeuticCategory: anticonvulsant”, the maximum recommended daily dose (mmol/kg-bw/day) is 0.279.

Consider `CC(C)[N+](C)(CCC(C(N)=O)(c1ccccc1)c1ccccc1)C(C)C`, for which the maximum recommended daily dose (mmol/kg-bw/day) under setting [3] is 0.000472.

Take `CC(C)(C)c1ccc(C(O)CCCN2CCC(C(O)(c3ccccc3)c3ccccc3)CC2)cc1` (stereo not given): under setting [7], the maximum recommended daily dose (mmol/kg-bw/day) was 0.00424.

As for `CCCc1nc2c(C)cc(-c3nc4ccccc4n3C)cc2n1Cc1ccc(-c2ccccc2C(=O)O)cc1`, the maximum recommended daily dose (mmol/kg-bw/day) under setting [8] was 0.00258.

For `CC(=O)O[C@H]1C[C@H](O[C@H]2[C@@H](O)C[C@H](O[C@H]3[C@@H](O)C[C@H](O[C@H]4CC[C@@]5(C)[C@H](CC[C@@H]6[C@@H]5CC[C@]5(C)[C@@H](C7=CC(=O)OC7)CC[C@]65O)C4)O[C@@H]3C)O[C@@H]2C)O[C@H](C)[C@H]1O`, under “TherapeuticCategory: cardiotonic”, the maximum recommended daily dose (mmol/kg-bw/day) is 4.13e-06.

For the compound `NC[C@@H]1O[C@H](O[C@H]2[C@@H](O)[C@H](O[C@@H]3[C@@H](O)[C@H](N)C[C@H](N)[C@H]3O[C@H]3O[C@H](CN)[C@@H](O)[C@H](O)[C@H]3N)O[C@@H]2CO)[C@H](N)[C@@H](O)[C@@H]1O`, the maximum recommended daily dose (mmol/kg-bw/day) under setting [5] is 0.163.

`NCCCC(O)(P(=O)(O)O)P(=O)(O)O`: the maximum recommended daily dose (mmol/kg-bw/day) (TherapeuticCategory: antiosteoporotic) was 0.00268.

As for `CN1CCC2=C(C1)C(c1ccccc1)c1ccccc12` (stereo not given), the maximum recommended daily dose (mmol/kg-bw/day) under setting [7] was 0.00957.

As to `CCOC(=O)Oc1c(OC)cc(C(=O)O[C@@H]2C[C@@H]3CN4CCc5c([nH]c6cc(OC)ccc56)[C@H]4C[C@@H]3[C@H](C(=O)OC)[C@H]2OC)cc1OC`, the maximum recommended daily dose (mmol/kg-bw/day) under setting [8] was 7.5e-05.

Consider `CC(N)Cc1ccc(O)cc1` (stereo not given), for which the maximum recommended daily dose (mmol/kg-bw/day) (TherapeuticCategory: adrenergic, mydriatic) is 0.0265.

Turning to `O=C(O)COc1ccc(C(=O)c2cccs2)c(Cl)c1Cl`, where the note is “TherapeuticCategory: diuretic, uricosuric, antihypertensive”, the maximum recommended daily dose (mmol/kg-bw/day) was 0.0252.

`Cc1cc(O)c2ccccc2c1O`: for the setting “TherapeuticCategory: prothrombogenic vitamin”, the maximum recommended daily dose (mmol/kg-bw/day) was 0.000959.

In the case of `CC[N+]1(CC)CCC(=C(c2ccccc2)c2ccccc2)C1C` (stereo not given), under “TherapeuticCategory: antispasmodic”, the maximum recommended daily dose (mmol/kg-bw/day) is 0.00518.

As to `CCc1cc2c(s1)-n1c(C)nnc1CN=C2c1ccccc1Cl`, the maximum recommended daily dose (mmol/kg-bw/day) (TherapeuticCategory: anxiolytic) was 0.000195.

Turning to `CCN1CCCC1CNC(=O)c1cc(S(=O)(=O)CC)ccc1OC` (stereo not given), the maximum recommended daily dose (mmol/kg-bw/day) under setting [4] is 0.0564.

Consider `CS(=O)(=O)c1ccc(C2=C(c3ccccc3)C(=O)OC2)cc1`, for which the maximum recommended daily dose (mmol/kg-bw/day) (TherapeuticCategory: analgesic, anti inflammatory) was 0.00265.

With `CN1CCC(=C2c3ccccc3CC(=O)c3sccc32)CC1`, the maximum recommended daily dose (mmol/kg-bw/day) (TherapeuticCategory: antiasthmatic) was 0.000108.

With `CCCCC(C(=O)O)C(=O)N(Nc1ccccc1)c1ccccc1` (stereo not given), under “TherapeuticCategory: analgesic, antipyretic, anti inflammatory”, the maximum recommended daily dose (mmol/kg-bw/day) was 0.0337.

Take `CC(C)(C)NCC(O)COc1cccc2c1CCCC2=O` (stereo not given): the maximum recommended daily dose (mmol/kg-bw/day) (TherapeuticCategory: antiglaucoma) was 0.000858.

As to `COc1ccc2c(c1OC)CN1CCc3cc4c(cc3C1C2)OCO4` (stereo not given), where the note is “TherapeuticCategory: Ca channel blocker”, the maximum recommended daily dose (mmol/kg-bw/day) is 0.0981.

With `CC[C@H]1CN2CCc3cc(OC)c(OC)cc3[C@@H]2C[C@@H]1C[C@H]1NCCc2cc(OC)c(OC)cc21`, the maximum recommended daily dose (mmol/kg-bw/day) (TherapeuticCategory: antiamebic) is 0.00208.

Turning to `NNC(=O)c1ccncc1`, under setting [5], the maximum recommended daily dose (mmol/kg-bw/day) was 0.0729.

For `Cn1nnnc1SCC1=C(C(=O)O)N2C(=O)[C@@H](NC(=O)[C@H](O)c3ccccc3)[C@H]2SC1`, the maximum recommended daily dose (mmol/kg-bw/day) under setting [5] is 0.216.

With `CCN(C(C)=O)c1cccc(-c2ccnc3c(C#N)cnn23)c1`, where the note is “TherapeuticCategory: hypnotic, sedative”, the maximum recommended daily dose (mmol/kg-bw/day) was 0.00164.

Turning to `C#C[C@]1(O)CC[C@H]2[C@@H]3CCc4cc(O)ccc4[C@H]3CC[C@@]21C`, the maximum recommended daily dose (mmol/kg-bw/day) (TherapeuticCategory: estrogen) was 1.69e-06.

As to `C[C@H](CCC(=O)O)[C@H]1CC[C@H]2[C@@H]3[C@@H](O)C[C@@H]4C[C@H](O)CC[C@]4(C)[C@H]3CC[C@]12C`, the maximum recommended daily dose (mmol/kg-bw/day) (TherapeuticCategory: anticholelithogenic) is 0.0255.

Consider `Cn1c(=O)c2[nH]cnc2n(C)c1=O`, for which the maximum recommended daily dose (mmol/kg-bw/day) (TherapeuticCategory: bronchodilator) was 0.0481.

Consider `Cc1nnc(NS(=O)(=O)c2ccc(N)cc2)s1`, for which the maximum recommended daily dose (mmol/kg-bw/day) under setting [5] is 0.247.

As to `CC1OC(C)OC(C)O1` (stereo not given), the maximum recommended daily dose (mmol/kg-bw/day) under setting [2] was 1.89.

As for `O=C(O)c1cc(N=Nc2ccc(S(=O)(=O)Nc3ccccn3)cc2)ccc1O`, the maximum recommended daily dose (mmol/kg-bw/day) (TherapeuticCategory: treatment of ulcerative colitis and Crohn's disease) was 0.334.

Turning to `COc1ccc2c(c1)C(=O)N(CCc1ccc(S(=O)(=O)NC(=O)NC3CCCCC3)cc1)C(=O)C2(C)C`, the maximum recommended daily dose (mmol/kg-bw/day) under setting [6] was 0.0019.

Take `C[C@@](Cc1ccc(O)c(O)c1)(NN)C(=O)O`: the maximum recommended daily dose (mmol/kg-bw/day) (TherapeuticCategory: antiparkinsonian) was 0.00368.

On to `O=C1C[C@@H]2OCC=C3CN4CC[C@]56c7ccccc7N1[C@H]5[C@H]2[C@H]3C[C@H]46`, for which the maximum recommended daily dose (mmol/kg-bw/day) (TherapeuticCategory: rat poison) was 0.00209.

Regarding `C[C@@H]1O[C@@]2(CS1)CN1CCC2CC1`, under “TherapeuticCategory: selective agonist (tear and salivary production)”, the maximum recommended daily dose (mmol/kg-bw/day) was 0.00613.

For the compound `CC(C)NCC(O)COc1ccc(CC(N)=O)cc1` (stereo not given), the maximum recommended daily dose (mmol/kg-bw/day) (TherapeuticCategory: antihypertensive, antianginal, antiarrhythmic) is 0.0125.

Turning to `O=[N+]([O-])c1cc(Cl)cc(-c2cc(Cl)cc([N+](=O)[O-])c2O)c1O`, for the setting “TherapeuticCategory: none”, the maximum recommended daily dose (mmol/kg-bw/day) was 0.0058.

Consider `CN(C)CCc1c[nH]c2ccc(Cn3cncn3)cc12`, for which the maximum recommended daily dose (mmol/kg-bw/day) (TherapeuticCategory: antimigraine) is 0.00186.

For `CCCCC(=O)N(Cc1ccc(-c2ccccc2-c2nn[nH]n2)cc1)[C@@H](C(=O)O)C(C)C`, under setting [8], the maximum recommended daily dose (mmol/kg-bw/day) was 0.0122.

In the case of `CC(C)c1ccc2oc3nc(N)c(C(=O)O)cc3c(=O)c2c1`, under “TherapeuticCategory: antiallergic, antiasthmatic”, the maximum recommended daily dose (mmol/kg-bw/day) was 0.00838.

For the compound `COc1cc(C(=O)NCc2ccc(OCCN(C)C)cc2)cc(OC)c1OC`, where the note is “TherapeuticCategory: antiemetic”, the maximum recommended daily dose (mmol/kg-bw/day) was 0.043.

`CCOC(=O)[C@H](CCc1ccccc1)N[C@@H](C)C(=O)N1[C@H](C(=O)O)C[C@@H]2CCC[C@@H]21`: the maximum recommended daily dose (mmol/kg-bw/day) under setting [8] is 0.000799.

Take `CNC[C@H](O)c1cccc(O)c1`: the maximum recommended daily dose (mmol/kg-bw/day) (TherapeuticCategory: mydriatic, decongestant) was 0.00498.

For `CCCCC(=O)O[C@]1(C(=O)CO)[C@@H](C)C[C@H]2[C@@H]3CCC4=CC(=O)C=C[C@]4(C)[C@@]3(F)[C@@H](O)C[C@@]21C`, under setting [1], the maximum recommended daily dose (mmol/kg-bw/day) was 0.000315.

For the compound `CO[C@@]12[C@H](COC(N)=O)C3=C(C(=O)C(C)=C(N)C3=O)N1C[C@@H]1N[C@@H]12`, the maximum recommended daily dose (mmol/kg-bw/day) (TherapeuticCategory: antineoplastic) is 0.00162.

`CCCNC(=O)NS(=O)(=O)c1ccc(Cl)cc1`: the maximum recommended daily dose (mmol/kg-bw/day) under setting [6] was 0.0452.

`CCCCC[C@](C)(O)/C=C/[C@@H]1[C@@H](C/C=C\CCCC(=O)O)[C@@H](O)C[C@H]1O`: the maximum recommended daily dose (mmol/kg-bw/day) (TherapeuticCategory: oxytocic) is 0.000543.

For `CO[C@@]1(NC(=O)Cc2cccs2)C(=O)N2C(C(=O)O)=C(COC(N)=O)CS[C@@H]21`, the maximum recommended daily dose (mmol/kg-bw/day) under setting [5] is 0.468.

As for `COc1ccc(OC)c(C(O)CNC(=O)CN)c1` (stereo not given), for the setting “TherapeuticCategory: adrenergic, antihypotensive”, the maximum recommended daily dose (mmol/kg-bw/day) was 0.000983.
